Data reported in publication PMC6749073 (Frontiers in Pharmacology, 2019).
pIC50: −log10 of the molar value.

Tests used:
[1] = tested on: A549, NCI-H292, NCI-H460, and LTEP-A-2 xenograft models; assay: ED50 (50% reduction of xenograft tumor volume) in nude mice; type: in vivo; details: dose reducing xenograft tumor volume by 50%; average over A549, NCI-H292, NCI-H460, and LTEP-A-2 xenograft models
Method: (§1) After injection, the animals’ condition was monitored every day for over 1 week by an observer who was blinded to the dose and drug allocation.
(§2) Estimates for ED50 and LD50 were calculated through nonlinear regression, data were fitted to a sigmoidal dose-response relationship in Prism (version 4.0a; GraphPad Software, Inc., San Diego, CA). The data were fitted to the equation:
(§3) Y=Ymin+Ymax−Ymin/1+10^(LogED50−X)∗HillSlope
(§4) where X is the logarithm of concentration, and Y is the response.

A549 = assay: MTT cell viability assay, A549; type: cell-based, human; details: 48 h
Method: (§5) Cells were seeded at a density of 1 × 10^4 cells per well in 96-well plates. The following day, these cells were washed with PBS and exposed to different concentrations of testing compounds in culture medium for 48 h. MTT solution (10 μl at 5 mg/ml) was added to each well. After 4 h of incubation at 37°C, the medium was removed, and the insoluble precipitate was dissolved in 100 μl DMSO (Sigma, St. Louis, MO, USA). The absorbance of the dissolved solution at 490 nm was measured using a microplate reader (TECAN A-5082; Megllan, Austria). Cell viability percentages were calculated by dividing the mean optical density (OD) of compound-containing wells by that of the control wells. Each experiment was replicated three times. The IC50 of testing drugs was calculated with Statistical Product and Service Solutions software (SPSS, version 16.0).

H292 = assay: MTT cell viability assay, H292; type: cell-based, human; details: 48 h
Method: as §5

HCC827 = assay: MTT cell viability assay, HCC827; type: cell-based, human; details: 48 h
Method: as §5

H1299 = assay: MTT cell viability assay, H1299; type: cell-based, human; details: 48 h
Method: as §5

LTEP-A-2 = assay: MTT cell viability assay, LTEP-A-2; type: cell-based, human; details: 48 h
Method: as §5

H1650 = assay: MTT cell viability assay, H1650; type: cell-based, human; details: 48 h
Method: as §5

Calu-3 = assay: MTT cell viability assay, Calu-3; type: cell-based, human; details: 48 h
Method: as §5

A549/DDP = assay: MTT cell viability assay, A549/DDP; type: cell-based, human; details: A549/DDP (DDP-resistant), 48 h
Method: as §5

[2] = tested on: BEAS-2B normal human lung epithelial cell line; assay: MTT cell viability assay, BEAS-2B; type: cell-based; details: BEAS-2B normal lung epithelial cells; MTT; 48 h
Method: as §5

[3] = tested on: bone marrow karyocyte count; assay: Bone marrow karyocyte count; type: in vivo, mice
A549 cells = assay: Cell cycle by PI flow cytometry, A549; type: cell-based, human; details: diplatin 50 μM, DDP 5 μM, CBP 100 μM
Method: (§6) Then, the cells were trypsinized, washed with PBS, and fixed in 1.5 ml 95% ethanol and left at 4°C overnight. They were then incubated with RNase and stained with propidium iodide (PI) (Multi Sciences Biotech Co., Ltd). PI absorbance was determined using a Cytomics FC500 Flow Cytometer (Beckman Coulter, USA).

H292 cells = assay: Cell cycle by PI flow cytometry, H292; type: cell-based, human; details: diplatin 50 μM, DDP 5 μM, CBP 100 μM
Method: as §6

LTEP-A-2 cells = assay: Cell cycle by PI flow cytometry, LTEP-A-2; type: cell-based, human; details: diplatin 50 µM, DDP 5 µM, CBP 100 µM
Method: as §6

H460 cells = assay: Cell cycle by PI flow cytometry, H460; type: cell-based, human; details: diplatin 50 µM, DDP 5 µM, CBP 100 µM
Method: as §6

[4] = tested on: JNK, Erk1/2 and p38 phosphorylation in A549 and H292 cells; assay: Western blot of MAPK phosphorylation (JNK, Erk1/2, p38); type: cell-based, human; details: for Erk1/2 and p38 phosphorylation: diplatin 10, 25, 50 μM, DDP 5 μM, CBP 100 μM
Method: (§7) Cells were treated with diplatin, DDP, and CBP before being lysed. After centrifugation at 12,000 rpm for 10 min, an equal amount of protein from each group was subjected to electrophoresis on 10% SDS-PAGE gels. The proteins in the gel were then electroblotted onto polyvinylidene fluoride (PVDF) membranes (Millipore, Massachusetts, USA). After incubation in the blocking buffer (1× TBS, 0.1% Tween-20, and 5% w/v dry nonfat milk) for 1 h at room temperature, the membranes were incubated with the primary antibody at 4°C overnight. Next, membranes were rinsed with TBST, and then secondary antibodies were applied (LI-COR, USA) at room temperature for 1 h. Immunoreactive bands were visualized by a two-color infrared imaging system (Odyssey, LI-COR, USA).

[5] = design: method as in Moraleja et al., 2018; details: rats; ref Moraleja et al., 2018; cited from earlier work
normal ICR mice = assay: LD50 in normal ICR mice; type: in vivo; details: tail vein injection
Method: as §1, §2, §3, §4

H460 = assay: MTT cell viability assay, H460; type: cell-based, human; details: 48 h
Method: as §5

lung tumor cell lines = assay: MTT cell viability assay, panel of lung tumor cell lines; type: cell-based, human; details: 48 h, read-out: IC50 range over the lung tumor cell lines
Method: as §5

[6] = Body weight and tolerability of A549 and H292 xenograft mice; type: in vivo; details: diplatin 120 mg/kg; CBP 60 mg/kg; every 3 days i.v.
Method: Cells in logarithmic growth were washed with PBS and suspended in serum-free medium. Portions of the suspension (5 × 10^6 cells in 0.1 ml/mouse) were mixed at a 3:1 ratio with Matrigel basement membrane matrix and injected subcutaneously into the mice. Following 2 weeks of growth, tumor tissues were cut into multiple 2 × 2 × 2 mm^3 pieces and implanted using a range trocar subcutaneously (s.c. injection) into the left forepaw armpit of each mouse ([Jiang et al., 2017]). Treatment with pharmacology was started when the tumors reached an average volume of 100–200 mm^3. The mice were randomly divided into six groups (n = 14/group).
Body weight and tumor size were assessed every 3 days. Tumor size was measured using a caliper, the volumes were calculated according to the following standard formula: V = (L × W^2)/2 (V = tumor volume, L = largest diameter of tumor, W = smallest diameter of tumor). On day 25, all mice were sacrificed by cervical dislocation, and the tumors were removed and weighed.

[7] = tested on: peripheral blood cell count; assay: Peripheral blood cell count of treated xenograft mice; type: in vivo; details: diplatin 120 mg/kg; DDP 6 mg/kg; CBP 60 mg/kg
[8] = Splenic index (spleen weight-to-body weight ratio); type: in vivo, mice; details: diplatin 30, 60, 120 mg/kg; DDP 6 mg/kg; CBP 60 mg/kg
A549 tumors = assay: TUNEL assay of A549 xenograft tumor sections; type: in vivo, mice; details: diplatin 120 mg/kg, DDP 6 mg/kg, CBP 60 mg/kg
Method: (§8) Tumor tissues were fixed in 10% formalin for 4 h and then embedded in paraffin. Five-micrometer-thick sections were sliced and stained for apoptotic cells with TUNEL assay kit in accordance with manufacturer instructions (KGI Biotechnology Company, Nanjing, China). A positive result was marked by brown staining in the cell nucleus. Cell images were acquired through a microscope (Olympus BX 51, Japan). The apoptotic index (AI) was determined as a percentage of apoptotic cells from at least 1,000 cells in each mouse.

H292 tumors = assay: TUNEL assay of H292 xenograft tumor sections; type: in vivo, mice; details: diplatin 120 mg/kg, DDP 6 mg/kg, CBP 60 mg/kg
Method: as §8

[9] = tested on: p53, Fas, and Bax expressions in A549 and H292 cells; assay: Western blot of p53, Fas and Bax; type: cell-based, human; details: 10 μM SP600125 pretreatment 0.5 h, 25 μM diplatin 48 h
Method: as §7

Row | Compound | Mice ED50 [1] [mg/kg] | pIC50 (A549) | pIC50 (H292) | pIC50 (HCC827) | pIC50 (H1299) | pIC50 (LTEP-A-2) | pIC50 (H1650) | pIC50 (Calu-3) | pIC50 (A549/DDP) | pIC50 [2] | effect on cell cycle distribution (A549 cells) | effect on cell cycle distribution (H292 cells) | effect on cell cycle distribution (LTEP-A-2 cells) | effect on cell cycle distribution (H460 cells) | Erk1/2 and p38 phosphorylation [4] | other results
1 | N.N.[Cl][Pt][Cl] [DDP, cisplatin] | 6.0 | 4.33 | 5.22 | 4.83 | 4.73 | 5.21 | 4.94 | 4.47 | 3.82 | 4.71 | induced cell cycle arrest in S phase | induced cell cycle arrest in S phase | induced cell cycle arrest in S phase | induced cell cycle arrest in S phase | failed to induce Erk1/2 and p38 phosphorylation | bone marrow karyocyte count compared with the 120 mg/kg diplatin-treated group ([3]; mouse, in vivo): decreased bone marrow karyocyte count more; JNK phosphorylation levels ([4]; diplatin 10–50 μM, DDP 10 μM, 0.5 h): elevated; Pt accumulation in the kidney compared with the CBP group [5]: approximately five-fold higher
2 | N.N.O=C([O-])C1(C(=O)[O-])CCC1.[Pt+2] [CBP, carboplatin] | 59.5 | 3.66 | 3.59 | 3.48 | 3.56 | 4.24 | 3.68 | 3.10 | 3.52 | 3.34 | induced cell cycle arrest in S phase | induced cell cycle arrest in S phase | induced cell cycle arrest in S phase | induced cell cycle arrest in S phase | failed to induce Erk1/2 and p38 phosphorylation | Mice LD50 (normal ICR mice): 150 mg/kg; pIC50 (H460): 3.64; pIC50 (lung tumor cell lines): 3.10 to 4.24; reduction of body weight by day 25 [6]: 18.71%; decrease of peripheral blood cell count [7]: 67.9%; splenic index relative to control [8]: no difference relative to control; bone marrow karyocyte count compared with the 120 mg/kg diplatin-treated group ([3]; DDP 6 mg/kg, CBP 60 mg/kg): decreased bone marrow karyocyte count more; apoptosis (apoptotic index, TUNEL) (A549 tumors): 18.5%; apoptosis (apoptotic index, TUNEL) (H292 tumors): 24.9%
3 | Oc1c2ccccc2c2c3c(cccc13)N=N2 [SP600125] | – | – | – | – | – | – | – | – | – | – | – | – | – | – | – | effect on diplatin-induced p53, Fas, and Bax expression [9]: suppressed
